This experiment has as its target T1, C5a anaphylatoxin chemotactic receptor 1 (Homo sapiens, UniProt P21730).
T1 sequence (P21730 whole entry): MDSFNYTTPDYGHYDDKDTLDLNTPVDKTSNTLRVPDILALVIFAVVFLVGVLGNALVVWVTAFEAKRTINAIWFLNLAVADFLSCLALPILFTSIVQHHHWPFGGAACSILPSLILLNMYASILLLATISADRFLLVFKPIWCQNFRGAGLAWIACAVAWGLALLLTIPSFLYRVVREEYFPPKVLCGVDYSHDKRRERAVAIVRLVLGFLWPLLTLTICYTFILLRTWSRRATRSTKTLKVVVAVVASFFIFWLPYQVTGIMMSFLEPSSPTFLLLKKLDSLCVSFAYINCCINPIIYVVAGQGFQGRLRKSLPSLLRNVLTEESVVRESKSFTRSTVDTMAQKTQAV
The experiment is described as follows: chemotaxis assay. As to the method:
Optionally, compounds may be further assayed for their ability to inhibit chemotaxis in cells. Chemotaxis assays are performed using 5 μm pore polycarbonate, polyvinylpyrrolidone-coated filters in 96-well chemotaxis chambers (Neuroprobe; Gaithersburg, Md.) using chemotaxis buffer (Hank's balanced salt solution (HBSS) and 1% FBS). C5aR ligands (i.e., C5a, R&D Systems; Minneapolis, Minn.) are use to evaluate compound mediated inhibition of C5aR mediated migration. Other chemokines (i.e., SDF-1α; R&D Systems; Minneapolis, Minn.) are used as specificity controls. The lower chamber is loaded with 29 μl of chemokine (i.e., 0.03 nM C5a) and varying amounts of compound; the top chamber contains 100,000 U937 or neutrophil cells in 20 μl. The chambers are incubated 1.5 hours at 37° C., and the number of cells in the lower chamber quantified either by direct cell counts in five high powered fields per well or by the CyQuant assay (Molecular Probes), a fluorescent dye method that measures nucleic acid content and microscopic observation.

Compound `Cc1cccc(OCC(C)C)c1-n1nc2c(c1-c1ccc(NC(N)=O)c(F)c1)CN(c1ncc(Cl)cc1F)CC2` [US11478460, Compound 1.250] displayed an IC50 of less than 5 nM. To `Cc1cccc(OCC(C)C)c1-n1nc2c(c1-c1ccc(NC(N)=O)cc1)CN(c1cccc(C(C)(C)C)n1)CC2` [US11478460, Compound 1.394] belongs less than 5 nM.
